Where “and” joins values, the source holds several entries; their conditions need not be identical. Equal entries are not always repeated.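 All cell lines were grown in 96-well plates and treated with compound for 48 hours. GI50 marks 50% less growth. TGI: concentration producing complete growth inhibition.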
Experiments:
Experiment in all cases: NCI-60 cell line screen, 48 h; in the data active means GI50 below about 0.43 µM; inactive means the rest
LOX IMVI melanoma = system: LOX IMVI melanoma
MDA-N = system: MDA-N
MDA-MB-231 breast = system: MDA-MB-231 breast
HT29 colon = system: HT29 colon
SF-295 CNS = system: SF-295 CNS
COLO 205 colon = system: COLO 205 colon
NCI-H226 lung = system: NCI-H226 lung
UO-31 renal = system: UO-31 renal
SK-MEL-2 melanoma = system: SK-MEL-2 melanoma
ACHN renal = system: ACHN renal

COc1ccc(NC(C)=O)cc1N1C(=O)/C(=C\c2cc(OC)c(OC)c(OC)c2)SC1c1ccccc1 (configuration not stated)
> 100 µM: TGI (LOX IMVI melanoma) | TGI (MDA-MB-231 breast) | TGI (HT29 colon) | TGI (SF-295 CNS) | TGI (COLO 205 colon) | TGI (NCI-H226 lung) | TGI (UO-31 renal) | TGI (SK-MEL-2 melanoma) | TGI (ACHN renal)
72.3 µM: TGI (MDA-N)

CC1(C)CC(C)(C)C1=NNC(N)=O
> 100 µM: TGI (LOX IMVI melanoma) | TGI (MDA-N) | TGI (MDA-MB-231 breast) | TGI (HT29 colon) | TGI (SF-295 CNS) | TGI (COLO 205 colon) | TGI (NCI-H226 lung) | TGI (UO-31 renal) | TGI (SK-MEL-2 melanoma) | TGI (ACHN renal)

COc1cc(C2c3cc4c(cc3OC(NNC(N)=O)C2C)OCO4)cc(OC)c1O (configuration not stated)
9.4 µM: TGI (COLO 205 colon)
1.02 µM: TGI (MDA-N)
> 56.8 µM: TGI (HT29 colon)
> 85.7 µM: TGI (SF-295 CNS)
27.1 µM: TGI (NCI-H226 lung)
> 100 µM: TGI (LOX IMVI melanoma) | TGI (UO-31 renal) | TGI (ACHN renal)
> 74.4 µM: TGI (SK-MEL-2 melanoma)
> 56.9 µM: TGI (MDA-MB-231 breast)

C/C=C(/C)C(=O)O[C@H](C[C@@H](C)[C@H]1CC(c2ccoc2)OC1=O)[C@@]1(C)C(=O)CCC2O[C@]21C (some centres not stated)
> 100 µM: TGI (LOX IMVI melanoma) | TGI (MDA-N) | TGI (MDA-MB-231 breast) | TGI (HT29 colon) | TGI (SF-295 CNS) | TGI (COLO 205 colon) | TGI (NCI-H226 lung) | TGI (UO-31 renal) | TGI (SK-MEL-2 melanoma) | TGI (ACHN renal)

O=c1ccn(CC2(CO)CC(Cc3ccccc3)C2)c(=O)[nH]1 (configuration not stated)
> 100 µM: TGI (LOX IMVI melanoma) | TGI (MDA-N) | TGI (MDA-MB-231 breast) | TGI (HT29 colon) | TGI (SF-295 CNS) | TGI (COLO 205 colon) | TGI (NCI-H226 lung) | TGI (UO-31 renal) | TGI (SK-MEL-2 melanoma) | TGI (ACHN renal)

O=C(O)c1nc(-c2ccccc2)[nH]c1C(=O)O
11.3 µM: TGI (MDA-MB-231 breast)
9.47 µM: TGI (LOX IMVI melanoma)
21.3 µM: TGI (SK-MEL-2 melanoma)
33.1 µM: TGI (NCI-H226 lung)
31.7 µM: TGI (COLO 205 colon)
30.9 µM: TGI (SF-295 CNS)
30.7 µM: TGI (ACHN renal)
20.2 µM: TGI (HT29 colon)
24.4 µM: TGI (MDA-N)
24.8 µM: TGI (UO-31 renal)

CCCCCCCCCCCCCCCCCCNc1ccn(C2OC(COP(=O)(O)OCC3OC(n4cc(F)c(NCCCCCCCCCCCCCCCCCC)nc4=O)CC3O)C(O)C2O)c(=O)n1 (configuration not stated)
> 100 µM: TGI (LOX IMVI melanoma) | TGI (MDA-N) | TGI (MDA-MB-231 breast) | TGI (HT29 colon) | TGI (SF-295 CNS) | TGI (COLO 205 colon) | TGI (NCI-H226 lung) | TGI (UO-31 renal) | TGI (SK-MEL-2 melanoma) | TGI (ACHN renal)

C=C(CO[Si](C)(C)C(C)(C)C)C(C)=O
32.3 µM: TGI (MDA-N)
> 71 µM: TGI (COLO 205 colon)
> 66 µM: TGI (UO-31 renal)
40.7 µM: TGI (HT29 colon)
54.7 µM: TGI (SK-MEL-2 melanoma)
24.7 µM: TGI (LOX IMVI melanoma)
> 71.4 µM: TGI (ACHN renal)
46.6 µM: TGI (MDA-MB-231 breast)
> 100 µM: TGI (SF-295 CNS) | TGI (NCI-H226 lung)

Cc1c2c(n(CCc3ccc(Cl)cc3)c1C)NC(c1ccccc1)C(C#N)S2(=O)=O (configuration not stated)
> 68.9 µM: TGI (SK-MEL-2 melanoma)
> 71.4 µM: TGI (COLO 205 colon)
> 100 µM: TGI (SF-295 CNS) | TGI (NCI-H226 lung) | TGI (UO-31 renal) | TGI (ACHN renal)
> 75 µM: TGI (LOX IMVI melanoma)
> 74.9 µM: TGI (MDA-N)
> 59.3 µM: TGI (MDA-MB-231 breast)
> 65.9 µM: TGI (HT29 colon)

COc1ccc(-n2c(=O)n(C)c(=O)n2-c2ccc(OC)cc2)cc1
> 100 µM: TGI (LOX IMVI melanoma) | TGI (MDA-N) | TGI (MDA-MB-231 breast) | TGI (HT29 colon) | TGI (SF-295 CNS) | TGI (COLO 205 colon) | TGI (NCI-H226 lung) | TGI (UO-31 renal) | TGI (SK-MEL-2 melanoma) | TGI (ACHN renal)

CCOC(=O)c1cc2c3c(c(C(C)=O)c(O)c2[nH]1)N(CC(C)CC)CC3 (configuration not stated)
> 100 µM: TGI (LOX IMVI melanoma) | TGI (MDA-N) | TGI (MDA-MB-231 breast) | TGI (HT29 colon) | TGI (SF-295 CNS) | TGI (COLO 205 colon) | TGI (NCI-H226 lung) | TGI (UO-31 renal) | TGI (SK-MEL-2 melanoma) | TGI (ACHN renal)

CCCC(=O)NC(Nc1ccc(S(=O)(=O)Nc2nc(C)cc(C)n2)cc1)(C(F)(F)F)C(F)(F)F
> 100 µM: TGI (LOX IMVI melanoma) | TGI (MDA-N) | TGI (MDA-MB-231 breast) | TGI (HT29 colon) | TGI (SF-295 CNS) | TGI (COLO 205 colon) | TGI (NCI-H226 lung) | TGI (UO-31 renal) | TGI (SK-MEL-2 melanoma) | TGI (ACHN renal)

COC(=O)c1cc2ccc(OC(C)=O)c(OC(C)=O)c2cn1
41.7 µM: TGI (NCI-H226 lung)
36.3 µM: TGI (COLO 205 colon)
inactive: GI50 (MDA-N) 2.03 µM | GI50 (MDA-MB-231 breast) 17.7 µM | GI50 (SF-295 CNS) 42.1 µM
7.12 µM and 42.9 µM: TGI (MDA-MB-231 breast)
52.6 µM: TGI (HT29 colon)
30 µM: TGI (UO-31 renal)
36.7 µM: TGI (SK-MEL-2 melanoma)
3.63 µM and 2.6 µM: TGI (LOX IMVI melanoma)
2.93 µM and 3.68 µM: TGI (MDA-N)
31.5 µM: TGI (ACHN renal)

CC1=NN(c2nc(N)nc(/C(C#N)=C/c3cccn3-c3cc(Cl)cc(Cl)c3)n2)C(C)(C)C1
> 100 µM: TGI (LOX IMVI melanoma) | TGI (MDA-N) | TGI (MDA-MB-231 breast) | TGI (HT29 colon) | TGI (SF-295 CNS) | TGI (COLO 205 colon) | TGI (NCI-H226 lung) | TGI (UO-31 renal) | TGI (SK-MEL-2 melanoma) | TGI (ACHN renal)

N#Cc1ccccc1-c1nc2c3c(c(N)ccc3n1)C(=O)c1ccccc1-2
> 100 µM: TGI (LOX IMVI melanoma) | TGI (MDA-N) | TGI (MDA-MB-231 breast) | TGI (HT29 colon) | TGI (SF-295 CNS) | TGI (COLO 205 colon) | TGI (NCI-H226 lung) | TGI (UO-31 renal) | TGI (SK-MEL-2 melanoma) | TGI (ACHN renal)

CC1(C)C2C=CC1(C)C1(CC2)OCCO1 (configuration not stated)
> 100 µM: TGI (LOX IMVI melanoma) | TGI (MDA-N) | TGI (MDA-MB-231 breast) | TGI (HT29 colon) | TGI (SF-295 CNS) | TGI (COLO 205 colon) | TGI (NCI-H226 lung) | TGI (UO-31 renal) | TGI (SK-MEL-2 melanoma) | TGI (ACHN renal)

CC(=O)Nc1ccc(OC2=CCN(C)CC2)cc1
> 100 µM: TGI (LOX IMVI melanoma) | TGI (MDA-N) | TGI (MDA-MB-231 breast) | TGI (HT29 colon) | TGI (SF-295 CNS) | TGI (COLO 205 colon) | TGI (NCI-H226 lung) | TGI (UO-31 renal) | TGI (SK-MEL-2 melanoma) | TGI (ACHN renal)

From PubChem BioAssay (NCI)
